Values of other authors, collected in US20180103657A1, “FROZEN CONFECTION” (Conopco, Inc., d/b/a UNILEVER, priority 2015, published 2018).

Settings: partition coefficient at 20 degrees centigrade

For CCCC(=O)OCC [Ethyl butyrate], the “Log P [flavour compounds]” value is listed as 1.8.
